The subject of experiment [1] is H37Rv strain of M. tuberculosis. Kind of experiment: Alamar Blue Susceptibility Test (MABA). It is filed as cell-based. The settings on record: H37Rv strain of M. tuberculosis, Alamar Blue; for MIC: Mycobacterium tuberculosis, read-out: MABA (TB growth inhibition, colourimetric assay). A general note: Alamar Blue is a resazurin reagent that responds to reducing activity.

Experiment [2] relates to non replicating phase of M. tuberculosis (H37Rv with a plasmid with an acetimidase promoter driving a luciferase gene). In words: microbe, parasite or virus in culture. It is filed as cell-based. The following applies: non replicating M. tuberculosis H37Rv luciferase strain; for MIC: Mycobacterium tuberculosis, read-out: LORA (TB growth inhibition, MIC).

The structures appear in SMILES notation. ≈ marks a conversion by molar mass, not a printed value. Where a name gives a salt, the structure may show the parent alone. Some results are limits rather than exact numbers.

On to `Cn1ncc2c(NCc3ccccc3)nc(N3CCCC3)nc21` [Compound 20, N-Benzyl-1-methyl-6-(pyrrolidin-1-yl)-1H-pyrazolo[3,4-d]pyrimidin-4-amine], for which the MIC in experiment [1] was in the range of 50 to 128 µM (≈ 15.4 to 39.5 µg/mL). Moreover, in experiment [2], the “LORA (TB growth inhibition, MIC)” value is on record as “−”.

Turning to `CC(Nc1nc(N2CCN(C(=O)C3CCCC3)CC2)nc2ccccc12)c1ccccc1` (stereo not shown) [Compound 21, Cyclopentyl(4-(4-(1-phenylethylamino)quinazolin-2-yl)piperazin-1-yl)methanone], the MIC in experiment [1] and in experiment [2] was 10 to 50 µM (≈ 4.3 to 21.5 µg/mL) throughout.

With `c1ccc(CNc2nc(N3CCCC3)nc3ccccc23)cc1` [Compound 22, N-Benzyl-2-(pyrrolidin-1-yl)quinazolin-4-amine], the MIC in experiment [1] was under 10 µM; in experiment [2], 10 to 50 µM (≈ 3.04 to 15.2 µg/mL).

For `c1ccc(CNc2nc(N3CCCCC3)c3ccccc3n2)cc1` [Compound 24, N-Benzyl-4-(piperidin-1-yl)quinazolin-2-amine], the MIC in experiment [1] and in experiment [2] was 10 to 50 µM (≈ 3.18 to 15.9 µg/mL) in each case.

As for `c1ccc(CNc2nc(N3CCc4ccccc4C3)nc3ccccc23)cc1` [Compound 30, N-Benzyl-2-(3,4-dihydroisoquinolin-2(1H)-yl)quinazolin-4-amine], the MIC in experiment [1] and in experiment [2] was under 10 µM each time.

As to `c1ccc(CCNc2nc(N3CCCCC3)nc3ccccc23)cc1` [Compound 33, N-Phenethyl-2-(piperidin-1-yl)quinazolin-4-amine], the MIC in experiment [1] is under 10 µM; in experiment [2], 10 to 50 µM (≈ 3.32 to 16.6 µg/mL).

`Clc1ccc(CNc2nc(N3CCCCC3)nc3ccccc23)cc1` [Compound 34, N-(4-Chlorobenzyl)-2-(piperidin-1-yl)quinazolin-4-amine]: the MIC in experiment [1] is under 10 µM; in experiment [2] it was 10 to 50 µM (≈ 3.53 to 17.6 µg/mL).

As to `CN(Cc1ccccc1)c1nc(N2CCCCC2)nc2ccccc12` [Compound 35, N-Benzyl-N-methyl-2-(piperidin-1-yl)quinazolin-4-amine], the MIC in experiment [1] and in experiment [2] was under 10 µM in each case.

Consider `c1ccc2c(c1)CCN(c1nc(N3CCCCC3)nc3ccccc13)C2` [Compound 36, 4-(3,4-Dihydroisoquinolin-2(1H)-yl)-2-(piperidin-1-yl)quinazoline], for which the results for the MIC in experiment [1] and in experiment [2] were under 10 µM and 10 to 50 µM (≈ 3.44 to 17.2 µg/mL), respectively.

Take `c1ccc2c(CNc3nc(N4CCCCC4)nc4ccccc34)cccc2c1` [Compound 37, N-(Naphthalen-1-ylmethyl)-2-(piperidin-1-yl)quinazolin-4-amine]: the MIC in experiment [1] and in experiment [2] was under 10 µM in each case.

Turning to `FC(F)(F)c1ccc(CNc2nc(N3CCCCC3)nc3ccccc23)cc1` [Compound 38, 2-(Piperidin-1-yl)-N-(4-(trifluoromethyl)benzyl)quinazolin-4-amine], the MIC in experiment [1] and in experiment [2] was under 10 µM each time.

In the case of `C[C@@H](Nc1nc(N2CCCCC2)nc2ccccc12)c1ccccc1` [Compound 39, (R)—N-(1-Phenylethyl)-2-(piperidin-1-yl)quinazolin-4-amine], the MIC in experiment [1] is under 10 µM; in experiment [2] it was 10 to 50 µM (≈ 3.32 to 16.6 µg/mL).

On to `Clc1ccccc1CNc1nc(N2CCCCC2)nc2ccccc12` [Compound 40, N-(2-Chlorobenzyl)-2-(piperidin-1-yl)quinazolin-4-amine], for which the MIC in experiment [1] is under 10 µM; in experiment [2], 10 to 50 µM (≈ 3.53 to 17.6 µg/mL).

For the compound `Clc1cccc(CNc2nc(N3CCCCC3)nc3ccccc23)c1` [Compound 41, N-(3-Chlorobenzyl)-2-(piperidin-1-yl)quinazolin-4-amine], the MIC in experiment [1] was under 10 µM; in experiment [2] it was 10 to 50 µM (≈ 3.53 to 17.6 µg/mL).

`FC(F)(F)c1ccccc1CNc1nc(N2CCCCC2)nc2ccccc12` [Compound 42, 2-(Piperidin-1-yl)-N-(2-(trifluoromethyl)benzyl)quinazolin-4-amine]: the figures for the MIC in experiment [1] and in experiment [2] were under 10 µM and 10 to 50 µM (≈ 3.86 to 19.3 µg/mL), respectively.

Take `Cc1ccc(CNc2nc(N3CCCCC3)nc3ccccc23)cc1` [Compound 43, N-(4-Methylbenzyl)-2-(piperidin-1-yl)quinazolin-4-amine]: the MIC was under 10 µM in experiment [1] and 10 to 50 µM (≈ 3.32 to 16.6 µg/mL) in experiment [2].

Turning to `COc1ccc(CNc2nc(N3CCCCC3)nc3ccccc23)cc1` [Compound 44, N-(4-Methoxybenzyl)-2-(piperidin-1-yl)quinazolin-4-amine], the MIC was under 10 µM in experiment [1] and 10 to 50 µM (≈ 3.48 to 17.4 µg/mL) in experiment [2].

With `c1ccc2c(NCC3CCCCC3)nc(N3CCCCC3)nc2c1` [Compound 45, N-(Cyclohexylmethyl)-2-(piperidin-1-yl)quinazolin-4-amine], the MIC in experiment [1] is under 10 µM; in experiment [2] it was 10 to 50 µM (≈ 3.24 to 16.2 µg/mL).

On to `c1csc(CNc2nc(N3CCCCC3)nc3ccccc23)c1` [Compound 48, 2-(Piperidin-1-yl)-N-(thiophen-2-ylmethyl)quinazolin-4-amine], for which the figures for the MIC in experiment [1] and in experiment [2] were under 10 µM and 10 to 50 µM (≈ 3.24 to 16.2 µg/mL), respectively.

As to `FC(F)(F)c1cccc(CNc2nc(N3CCCCC3)nc3ccccc23)c1` [Compound 49, 2-(Piperidin-1-yl)-N-(3-(trifluoromethyl)benzyl)quinazolin-4-amine], the MIC in experiment [1] is under 10 µM; in experiment [2] it was 10 to 50 µM (≈ 3.86 to 19.3 µg/mL).

Consider `CC(C)(Nc1nc(N2CCCCC2)nc2ccccc12)c1ccccc1` [Compound 53, N-(2-Phenylpropan-2-yl)-2-(piperidin-1-yl)quinazolin-4-amine], for which the MIC is under 10 µM in experiment [1] and 10 to 50 µM (≈ 3.46 to 17.3 µg/mL) in experiment [2].

As for `c1ccc(CNc2cc(N3CCCCC3)nc3ccccc23)cc1` [Compound 54, N-Benzyl-2-(piperidin-1-yl)quinolin-4-amine], the MIC in experiment [1] and in experiment [2] was under 10 µM each time.

Consider `c1ccc2c(NC34CC5CC(CC(C5)C3)C4)nc(N3CCCCC3)nc2c1` [Compound 59, N-(1′-Adamantyl)-2-(piperidin-1-yl)quinazolin-4-amine], for which the “MABA (TB growth inhibition, colourimetric assay)” value in experiment [1] is “+++ (10-50 μM=+++)”. Besides, in experiment [2], the “LORA (TB growth inhibition, MIC)” value is given as “++++ (key: TB growth<10 μM=++++; 10-50 μM=+++; 50-128 μM=++; >128 μM but inhibited=+; no inhibition=−)”.

As to `c1ccc2c(NC3C4CC5CC(C4)CC3C5)nc(N3CCCCC3)nc2c1` (stereo not shown) [Compound 60, N-(2′-Adamantyl)-2-(piperidin-1-yl)quinazolin-4-amine], the “MABA (TB growth inhibition, colourimetric assay)” value in experiment [1] is “+++ (10-50 μM=+++)”. In experiment [2], the “LORA (TB growth inhibition, MIC)” value is given as “++++ (key: TB growth<10 μM=++++; 10-50 μM=+++; 50-128 μM=++; >128 μM but inhibited=+; no inhibition=−)”.

As for `CN(C)c1ccc(CNc2nc(N3CCCCC3)nc3ccccc23)cc1` [Compound 62, N-(4-(Dimethylamino)benzyl)-2-(piperidin-1-yl)quinazolin-4-amine], the MIC in experiment [1] was under 10 µM; in experiment [2] it was 10 to 50 µM (≈ 3.61 to 18.1 µg/mL).

For the compound `Fc1ccc(CNc2nc(N3CCCCC3)nc3ccccc23)cc1` [Compound 63, N-(4-Fluorobenzyl)-2-(piperidin-1-yl)quinazolin-4-amine], the values for the MIC in experiment [1] and in experiment [2] were under 10 µM and 10 to 50 µM (≈ 3.36 to 16.8 µg/mL), respectively.

Take `Fc1cccc(CNc2nc(N3CCCCC3)nc3ccccc23)c1` [Compound 64, N-(3-Fluorobenzyl)-2-(piperidin-1-yl)quinazolin-4-amine]: the MIC in experiment [1] was under 10 µM; in experiment [2], 10 to 50 µM (≈ 3.36 to 16.8 µg/mL).

`Fc1ccccc1CNc1nc(N2CCCCC2)nc2ccccc12` [Compound 65, N-(2-Fluorobenzyl)-2-(piperidin-1-yl)quinazolin-4-amine]: the MIC in experiment [1] was under 10 µM; in experiment [2] it was 10 to 50 µM (≈ 3.36 to 16.8 µg/mL).

`c1ccc(CN(Cc2ccccc2)c2nc(N3CCCCC3)nc3ccccc23)cc1` [Compound 66, N,N-Dibenzyl-2-(piperidin-1-yl)quinazolin-4-amine]: the MIC was under 10 µM in experiment [1] and 10 to 50 µM (≈ 4.09 to 20.4 µg/mL) in experiment [2].

As for `Clc1ccc(CNc2nc(N3CCCCC3)nc3ccccc23)cc1Cl` [Compound 68, N-(3,4-Dichlorobenzyl)-2-(piperidin-1-yl)quinazolin-4-amine], the MIC in experiment [1] and in experiment [2] was under 10 µM each time.

For the compound `Clc1ccc(CNc2nc(N3CCCCC3)nc3ccccc23)c(Cl)c1` [Compound 69, N-(2,4-Dichlorobenzyl)-2-(piperidin-1-yl)quinazolin-4-amine], the results for the MIC in experiment [1] and in experiment [2] were under 10 µM and 10 to 50 µM (≈ 3.87 to 19.4 µg/mL), respectively.

For the compound `Cc1ccc(CNc2nc(NCc3ccc(Cl)cc3)c3ccccc3n2)cc1` [Compound 76, N^4-(4-Chlorobenzyl)-N^2-(4-methylbenzyl)quinazoline-2,4-diamine], the MIC in experiment [1] was under 10 µM; in experiment [2], 10 to 50 µM (≈ 3.89 to 19.4 µg/mL).

With `FC(F)(F)c1ccc(CNc2nc(N3CCCC3)nc3ccccc23)cc1` [Compound 78, 2-(Pyrrolidin-1-yl)-N-(4-(trifluoromethyl)benzyl)quinazolin-4-amine], the values for the MIC in experiment [1] and in experiment [2] were under 10 µM and 10 to 50 µM (≈ 3.72 to 18.6 µg/mL), respectively.

For the compound `Cc1ccc(CNc2nc(NCc3ccc(C(F)(F)F)cc3)c3ccccc3n2)cc1` [Compound 79, N^4-(4-Trifluoromethylbenzyl)-N^2-(4-methylbenzyl)quinazoline-2,4-diamine], the MIC in experiment [1] was under 10 µM; in experiment [2] it was 10 to 50 µM (≈ 4.22 to 21.1 µg/mL).

As for `Cc1cccc(CNc2nc(N3CCCCC3)nc3ccccc23)c1` [Compound 80, N-(3-Methylbenzyl)-2-(piperidin-1-yl)quinazolin-4-amine hydrochloride], the MIC was under 10 µM in experiment [1] and 10 to 50 µM in experiment [2].

As for `Clc1ccc(CCNc2nc(N3CCCCC3)nc3ccccc23)cc1` [Compound 83, N-(4-Chlorophenethyl)-2-(piperidin-1-yl)quinazolin-4-amine hydrochloride], the MIC in experiment [1] and in experiment [2] was under 10 µM throughout.

For the compound `COc1ccc(CCNc2nc(N3CCCCC3)nc3ccccc23)cc1` [Compound 84, N-(4-Methoxyphenethyl)-2-(piperidin-1-yl)quinazolin-4-amine hydrochloride], the MIC in experiment [1] is under 10 µM; in experiment [2] it was 10 to 50 µM.

As to `N#Cc1ccc(CNc2nc(N3CCCCC3)nc3ccccc23)cc1` [Compound 92, 4-((2-(Piperidin-1-yl)quinazolin-4-ylamino)methyl)benzonitrile], the results for the MIC in experiment [1] and in experiment [2] were under 10 µM and 50 to 128 µM (≈ 17.2 to 44 µg/mL), respectively.

The record behind these values is patent US20100317607A1, “USE OF COMPOUNDS FOR PREPARING ANTI-TUBERCULOSIS AGENTS” (INFECTIOUS DISEASE RESEARCH INSTITUTE, priority 2007, published 2010).
